The source of these data is patent US5776946A, “Peripheral benzodiazepine receptor ligands as antiinflammatory agents” (priority 1995, dated 1998).

Experiment [1] deals with T1, peripheral benzodiazepine receptors in brain (Homo sapiens, UniProt P30536).
T1 construct: host or cells: brain (Doble et al., 1987)
To be noted: read-out: ability to displace bound PK 11195 from peripheral benzodiazepine receptors (Ki); cited from earlier work.

Experiment [2] deals with cultured rat peritoneal macrophages. Put plainly: Respiratory burst in cultured rat peritoneal macrophages activated by opsonized zymosan. Type of experiment: cell-based. As to conditions: Peritoneal macrophage; for activity at 1000 µM: 10^-3 M. From the text: Its main function is to protect the body from hostile invaders by generating superoxide radicals, but inappropriate activation can damage host tissue. Oxidative stress is believed to be one of the more harmful concomitants of inflammation. The respiratory burst system can be activated in cultured peritoneal macrophages in multiple ways, including exposure to zymosan particles opsonized by complement proteins (Klegeris and McGeer, 1994).
For methods see Klegeris and McGeer, 1994.

Experiment [3] has as its target T2, peripheral benzodiazepine receptors, mouse peritoneal macrophages (Mus musculus, UniProt P50637).
T2 construct: host or cells: mouse peritoneal macrophages (Zavala and Lenfant, 1987b)
As to conditions: read-out: affinity; cited from earlier work.

The subject of the next experiment is MRL-lpr mice. Put plainly: CFA-induced disease in MRL-lpr mice, joint histopathology. Type of experiment: in vivo, mouse. As to conditions: for Severity of Disease Sign Total / Severity of Disease Sign (1) subsynovial inflammation / Severity of Disease Sign (2) synovial hyperplasia / Severity of Disease Sign (3) pannus formation / Severity of Disease Sign (4) bone destruction: day 30, mean ± S.D.; for Severity of Disease Sign (1) subsynovial inflammation / Severity of Disease Sign (2) synovial hyperplasia / Severity of Disease Sign (3) pannus formation / Severity of Disease Sign (4) bone destruction: scale 0-4. The source says:
MRL-lpr mice are a widely studied strain which spontaneously develop a particularly severe autoimmune disorder. Pathologies that are found in a variety of human idiopathic inflammatory and autoimmune diseases are reproduced in these animals. They are therefore considered to be an outstanding model for such individual human diseases, although the pathology represents a combination of several of them. They are regarded as the best animal model for rheumatoid arthritis (Koopman and Gay, 1988) , systemic lupus erythematous (Bartlett et al., 1988)., and Sjogren's syndrome (Hayashi et al., 1994). […] They develop behavioral and neurological deficits (Sakic et al., 1993), as well as evidence of CNS inflammation (Vogelweid et al., 1991) which is seen in isolation in such diseases as Alzheimer type dementia and multiple sclerosis, but is also part of the syndrome in systemic lupus erythematosus and Sjogren's syndrome. The model is considered to be a particularly demanding one for screening antiinflammatory agents because of the severity and comprehensiveness of the disease pathology. […] The lesions include synovial inflammation, synovial cell proliferation, pannus formation, and articular cartilage erosion and bone destruction. Only powerful antiinflammatory agents will inhibit the devastating changes that accompany this genetic disorder. Mice of the MRL-lpr strain spontaneously develop a mild form of the disease at several months of age. The onset can be accelerated by injection of complete Freund's adjuvant (CFA) supplemented to 10 mg/ml with heat-inactivated M. tuberculosis, at 13-14 weeks of age, with 67-82% of animals becoming affected within 1 month (Ratkay et al., 1994; Ratkay et al., 1993).
Daily injections were continued until day 14. The animals were sacrificed at day 30 and joint histopathology assessed. […] The results were compared with those in littermates receiving CFA only (N=7). Following sacrifice, animals were evaluated for subsynovial inflammation, synovial hyperplasia, cartilage destruction and pannus formation, and bone destruction.
^A The histopathological changes were assessed on a scale of 0 (no
change) to 4 (severe change) for the following indices: (1) subsynovial
inflammation; (2) synovial hyperplasia; (3) pannus formation; and (4) bon
destruction. For methods see Ratkay et al., 1994.

For experiment [4], the target named is T3, peripheral benzodiazepine receptors, human Alzheimer and control cortical tissue (Homo sapiens, UniProt P30536).
T3 construct: from tissue; host or cells: human cortical brain tissue, Alzheimer and neurologically normal control
T3 sequence (P30536 whole entry): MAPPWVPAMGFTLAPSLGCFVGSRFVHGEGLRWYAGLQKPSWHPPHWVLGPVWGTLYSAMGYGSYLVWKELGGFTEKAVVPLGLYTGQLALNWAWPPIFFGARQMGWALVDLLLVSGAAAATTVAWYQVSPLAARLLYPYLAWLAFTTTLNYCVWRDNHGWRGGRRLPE
Kind of experiment: Specific high affinity binding of PK 11195 to Alzheimer and control cortical tissue. As to conditions: PK 11195 at 3 nM. The source says:
The standard method of Schoemaker et al., 1983 was employed.

The target in experiment [5] is T3, peripheral benzodiazepine receptors, human Alzheimer and control cortical tissue. As to conditions: McGeer et al., 1988; cited from earlier work.
[6] abbreviates: 10^-4 M, after opsonized zymosan, read-out: Respiratory burst, Percent of Control (± S.E.), substance given After OZ.
Setting [7] is: 10^-4 M, before opsonized zymosan, read-out: Respiratory burst, Percent of Control (± S.E.), substance given Before OZ.
The mark [8] stands for this setting: 10^-5 M, before opsonized zymosan, read-out: Respiratory burst, Percent of Control (± S.E.), substance given Before OZ.
[9] abbreviates: after opsonized zymosan, read-out: Respiratory burst, Percent of Control (± S.E.), substance given After OZ.
The mark [10] stands for this setting: before opsonized zymosan, read-out: Respiratory burst, Percent of Control (± S.E.), substance given Before OZ.
[11] abbreviates: read-out: Respiratory burst, Percent of Control (± S.E.), substance given After OZ.
Setting [12] is: read-out: Respiratory burst, Percent of Control (± S.E.), substance given Before OZ.

Values joined by “and” are separate entries in the source; they are usually repeats but may differ in a detail not shown here. Identical values can stand only once. Like-named read-outs stand apart in the source and are kept apart here.

T1 sequence (P30536 whole entry): as above
T2 sequence (P50637 whole entry): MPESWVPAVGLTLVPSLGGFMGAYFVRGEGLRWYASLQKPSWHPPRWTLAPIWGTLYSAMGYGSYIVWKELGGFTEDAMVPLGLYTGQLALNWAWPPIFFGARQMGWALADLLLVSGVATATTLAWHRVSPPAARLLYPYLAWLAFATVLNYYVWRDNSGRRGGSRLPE

For `CCN(CC)C(=O)C(C)Cc1cc(-c2ccccc2)nc2ccccc12` (single isomer, unassigned) [PK-14067, 1-N,N-diethyl-a-methyl-2-phenylquinoline-4-propranamide], in experiment [1], the Ki (usually a measure of affinity in units of concentration, obtained from inhibition or displacement) is 44 nM.

On to `Nc1ccc(S(=O)(=O)c2ccc(N)cc2)cc1` [Dapsone, dapsone], for which the values for the activity at 100 µM in experiment [2] (setting [6]) and in experiment [2] (setting [7]) were 90.3 ± 6.2% and 73.6 ± 4.6%, respectively. Moreover, the activity at 10 µM in experiment [2] (10^-5 M, after opsonized zymosan, read-out: Respiratory burst, Percent of Control (± S.E.), substance given After OZ) came to 96.4 ± 1.6%; in experiment [2] (setting [8]), 94.7 ± 1.3%.

As for `COc1ccc2c(c1)c(CC(=O)O)c(C)n2C(=O)c1ccc(Cl)cc1` [Indomethacin, indomethacin], the figures for the activity at 1000 µM in experiment [2] (setting [9]) and in experiment [2] (setting [10]) were 64.8 ± 9.4% and 36 ± 12.5%, respectively. For the same compound, the activity at 100 µM in experiment [2] (setting [6]) was 101 ± 2.1%; in experiment [2] (setting [7]), 86.3 ± 10.9%. For the same compound, the activity at 10 µM in experiment [2] (setting [8]) is 101 ± 3.5%.

For the compound `CCC(C)N(C)C(=O)c1cc2ccccc2c(-c2ccccc2Cl)n1` (stereo not drawn) [PK 11195, 1-(2-chlorophenyl)-N-methyl-N-(1-methylpropyl)-3-isoquinolinecarboxamide], the Kd in experiment [3] is 5.6 nM. Besides, in the experiment with MRL-lpr mice (0.1 mg/kg s.c. daily to day 14), the “Severity of Disease Sign Total” value amounted to 1.40 ± 0.48, the “Severity of Disease Sign (1) subsynovial inflammation” value stood at 0.70 ± 0.26, the “Severity of Disease Sign (2) synovial hyperplasia” value turned out to be 0.70 ± 0.26 and the “Severity of Disease Sign (3) pannus formation” value (“Severity … (3) pannus formation” for short) is reported as 0.00 ± 0.00. Also, in the experiment on MRL-lpr mice (0.1 mg/kg s.c. daily to day 14), the “Severity of Disease Sign (4) bone destruction” value (“Severity … (4) bone destruction” below) is 0.00 ± 0.00. For the same compound, in the experiment with MRL-lpr mice (0.5 mg/kg s.c. daily to day 14), the “Severity of Disease Sign Total” value was 1.25 ± 0.53, the “Severity of Disease Sign (1) subsynovial inflammation” value worked out at 0.62 ± 0.26, the “Severity of Disease Sign (2) synovial hyperplasia” value came out at 0.50 ± 0.27 and the “Severity … (3) pannus formation” value was found to be 0.00 ± 0.00. For the same compound, the “Severity … (4) bone destruction” value in the experiment on MRL-lpr mice (0.5 mg/kg s.c. daily to day 14) came to 0.12 ± 0.12. In addition, in the experiment on MRL-lpr mice (1 mg/kg s.c. daily to day 14), the “Severity of Disease Sign Total” value came to 1.14 ± 0.14, the “Severity of Disease Sign (1) subsynovial inflammation” value is reported as 0.43 ± 0.20, the “Severity of Disease Sign (2) synovial hyperplasia” value is reported as 0.71 ± 0.18 and the “Severity … (3) pannus formation” value is listed as 0.00 ± 0.00. Also, in the experiment with MRL-lpr mice (1 mg/kg s.c. daily to day 14), the “Severity … (4) bone destruction” value came to 0.00 ± 0.00. In addition, the “reduction of the total histopathological score observed in control mice” value in the experiment on MRL-lpr mice (even at the lowest dose of 0.1 mg/kg) was “more than 70%”. Further, the “efficacy compared with results of Ratkay et al., 1994” value with MRL-lpr mice (lowest dose 0.1 mg/kg) is listed as “more effective than ten times that dose of indomethacin, forty times that dose of cyclosporin”. Besides, in experiment [4] (Alzheimer), the “Specific High Affinity Binding, Alzheimer cortical tissue, Means ± S.E.” value amounted to 449 ± 25 fentamoles/mg protein; the “Specific High Affinity Binding, Alzheimer cortical tissue, individual cases” value was 480 fentamoles/mg protein and 585 fentamoles/mg protein and 400 fentamoles/mg protein and 450 fentamoles/mg protein and 395 fentamoles/mg protein and 408 fentamoles/mg protein and 422 fentamoles/mg protein. Besides, in experiment [4] (Control), the “Specific High Affinity Binding, Control cortical tissue, Means ± S.E.” value was 165 ± 25 fentamoles/mg protein; the “Specific High Affinity Binding, Control cortical tissue, individual cases” value is 201 fentamoles/mg protein and 94 fentamoles/mg protein and 265 fentamoles/mg protein and 118 fentamoles/mg protein and 141 fentamoles/mg protein and 111 fentamoles/mg protein and 222 fentamoles/mg protein. For the same compound, in experiment [2] (setting [11]), the activity at 1 µM was 97.9 ± 0.2%, the activity at 10 µM was 83.5 ± 8.7% and the activity at 100 µM was determined as 47.1 ± 13.6%. Moreover, in experiment [2] (setting [12]), the activity at 1 µM was determined as 99 ± 5.6%, the activity at 10 µM turned out to be 87.9 ± 5.5% and the activity at 100 µM is 48.9 ± 10.8%. In experiment [2] (read-out: inhibition of respiratory burst), the inhibition – broadly, the share of the control response that was lost under treatment – at 100 µM is over 50%.

`C[C@]12C=CC(=O)C=C1CC[C@@H]1[C@@H]2C(=O)C[C@@]2(C)[C@H]1CC[C@]2(O)C(=O)CO` [Prednisone, prednisone]: the activity at 1000 µM in experiment [2] (setting [9]) was 67 ± 11.6%; in experiment [2] (setting [10]) it was 62.5 ± 8.1%. Besides, the activity at 100 µM came to 102 ± 4.9% in experiment [2] (setting [6]) and 88.8 ± 7.2% in experiment [2] (setting [7]).

For the compound `CN1C(=O)CN=C(c2ccc(Cl)cc2)c2cc(Cl)ccc21` [Ro 5-4864, 4'-chlorodiazepam], in experiment [1], the Ki was 178 nM. Also, in experiment [2] (setting [12]), the activity at 1 µM stood at 94.6 ± 12.2%, the activity at 10 µM worked out at 85.4 ± 2.5% and the activity at 100 µM came to 74.7 ± 1.9%. Also, in experiment [5], the “high affinity binding to Alzheimer versus neurologically normal brain tissue” value is “greater high affinity binding to Alzheimer brain tissue than to neurologically normal brain tissue”.
